Like-named read-outs stand apart in the source and are kept apart here.
Legend:
Male C57/B16 mice [1] = system: Male C57/B16 mice
Description: This system uses features derived from mouse behavioral data to classify compounds for their ability to treat neuro-psychiatric symptoms by comparing the features to a proprietary reference database of behavioral feature sets that are linked to classes of marketed drugs known to treat neuro-psychiatric symptoms. Thus the system can be used as a model to identify the psychiatric effect of a compound by comparing the effects of the compounds against drugs with known validated effects.
Once all features are extracted from the raw data through an automated pipeline, proprietary bioinformatics algorithms are used to decorrelate groups of features and find the combination of values that best separate different groups of interest.
SmartCube reference data used herein include anti-psychotics tested at several dose ranges. […] Anti-psychotics, when administered at higher doses, can engage additional receptor systems and thus affect mouse behavior differently.
Animals: Male C57/B16 mice (N=12 per group) from Taconic Laboratories were used. Upon receipt, mice were group-housed in OPTI mouse ventilated cages with 4 mice per cage. Mice were acclimated to the colony room for at least one week prior to test and subsequently tested at approximately 8-9 weeks of age. All animals were examined, handled, and weighed prior to initiation of the study to assure adequate health and suitability and to minimize non-specific stress associated with manipulation.
Treatment: 7 groups (N=12 per group)
All compounds tested were formulated in NP3 (vehicle solution): 5% Pharmasolve; 30% P3 (1:1:1 PEG200:PEG400:propylene glycol); 65% saline; pH is 5.1-6.
All SmartCube runs were conducted with NP3 as vehicle and under identical settings. […] Test compounds were injected intraperitoneally (IP) for 15 min before animals were placed in SmartCube for assessment.
The results for the class analyses are presented as standardized bar charts with percentages that sum to 100 for each dose. The percentage indicates the probability the classifier can differentiate between the vehicle group and test group. […]

Male C57/B16 mice [2] = conditions: reference data from Psychogenics, cited from earlier work

Structure (SMILES) | SmartCube class signature (Male C57/B16 mice [1]; IP, 1, 2 and 5 mcg/kg) | SmartCube class signature (Male C57/B16 mice [1]; IP, 10, 20 and 50 mcg/kg (0.01, 0.02, 0.05 mg/kg), 15 min before test) | SmartCube class signature (Male C57/B16 mice [1]; IP, higher doses) | SmartCube class signature (Male C57/B16 mice [2]; higher doses) | SmartCube class signature (Male C57/B16 mice [2]; therapeutically effective doses)
Cc1cccc([C@H](C)c2cnc[nH]2)c1C [Dexmedetomidine, (+) 4-(S)-[1-(2,3-dimethylphenyl)ethyl]-1H-imidazole] | cannot distinguish the mouse behaviour from behaviour of mice on vehicle | antipsychotic signature | high dose of anti-psychotic | – | –
N=C(N)NC(=O)Cc1c(Cl)cccc1Cl [Guanfacine] | – | – | – | high dose anti-psychotic | unable to assign signature
